Measured values reported in patent US20120329872A1, “Ready-To-Eat Feed For Domestic Pets” (Alzchem Trostberg GmbH, priority 2006, published 2012).

Tests used:
[1] = 200 patients, 30 mg GAA/kg daily for one year, in combination with betaine; cited from earlier work
Staphylococcus aureus = settings: bacterial infections (Staphylococcus aureus); cited from earlier work
[2] = Storage stability in water at pH 5 over 60 days (comparable to canned feeds); assay type: physicochemical
[3] = Stability in water (pH 7) heated in an autoclave to 160° C. for 30 minutes (model of feed extrusion); assay type: physicochemical
Protocol: For this purpose a model system was used for the extrusion of a moist feed paste at 160° C. […] Subsequently the content of creatine and guanidinoacetic acid was determined.

[4] = dogs, oral, about 40 mg/kg daily for several weeks; cited from earlier work

For `N=C(N)NCC(=O)O` [guanidinoacetic acid], which side effects [1] is on record?
The side effects was “not observed”.

And the “antibacterial action in animal experiments” value (Staphylococcus aureus)?
The value was “successfully used against bacterial infections”.

And the degradation after storage ([2]; water pH 5, after 60 days)?
Its degradation after storage is “no degradation”.

What about the “storage stability compared with creatine (FIG. 2)” value ([2]; water pH 5, over 60 days) of the same compound?
Its value is “significantly higher storage stability than creatine”.

What about the “content remaining, of the original content” value ([3]; 0.5 h, pH 7) of the same compound?
Its value is “more than 80%”.

Which body weight change [4] does the source give for `CN(CC(=O)O)C(=N)N` [creatine, reference compound] here?
Its body weight change is “considerable increase in weight”.

What about the nitrogen balance [4] of the same compound?
Its nitrogen balance is “positive nitrogen balance”.

And the “content recovered after storage” value ([2]; water pH 5, after 60 days)?
The value was 87%.

And the “content remaining, of the original content” value ([3]; water pH 7, 30 minutes at 160° C., autoclave)?
The value was “less than 20%”.
